# Reference: patent publication US4029799A, “Certain analgesically active substituted benzyl pyridine compounds” (Laboratorios Made, S.A., priority 1975, dated 1977)
# Tests used:
# [1] = Acute toxicity (i.p.), method of Lichfield and Wilcoxon; assay type: in vivo, I.C.R. Swiss mice, both sexes; details: mouse, in vivo, ip, mice, read-out: Lethal dose 50 (LD50)
# Method: (§1) acute toxicity studies were carried out in I.C.R. Swiss mice weighing 24± 2 g, of both sexes. The products were administered intraperitoneally (i.p.). Acute toxicity was calculated by the method of Lichfield and Wilcoxon.
# I.C.R. Swiss mice = test: as above; assay type: in vivo, both sexes
# Method: as §1
# [2] = test system: female albino I.C.R. Swiss mice; test: Analgesic activity, Hot Plate Test at 55° C.; assay type: in vivo; details: for Jump-off time: 30 minutes after administration, average ± standard mean error, control 77 ± 9.272
# Method: the analgesic activity of 2-(3,4,5-trimethoxybenzyl)-3,4-dimethylpyridine compound (I) was investigated in female albino I.C.R. Swiss mice weighing 24± 2 g. For this the Hot Plate Test was used at 55° C. 4 groups of mice each comprising 10 animals, were assembled. The distribution of the groups was according to the following scheme:-
# Group 1-- Control - 0.2 ml of distilled H2 O
# Group 2-- Compound I-0.2 ml of a solution of 2-(3,4,5-trimethoxybenzyl)-3,4-dimethylpyridine (I), 3 mg/ml.
# Group 3-- Compound I-0.2 ml of a solution of 2-(3,4,5-trimethoxybenzyl)-3,4-dimethylpyridine (I), 6 mg/ml.
# Group 4-- Dextropropoxyphene - 0.2 ml of a solution of dextropropoxyphene, 6 mg/ml.
# The products were injected intraperitoneally, and the measurements of analgesia were made 30 minutes after the administration of the drugs. Note was taken of the time taken for an animal to jump off the hot plate.
SMILES,LD50 [1] [mg/kg],toxicity compared with d-propoxyphene (I.C.R. Swiss mice),Jump-off time ([2]; 25 mg/kg i.p.) [s],"Significance (jump-off time) ([2]; 25 mg/kg i.p., N.S. or p value)",Jump-off time ([2]; 50 mg/kg i.p.) [s],"analgesic activity compared with d-propoxyphene ([2]; for equal doses, Hot Plate Test)",therapeutic index compared with dextropropoxyphene ([2]; from analgesia and acute toxicity in mice)
"COc1cc(Cc2nccc(C)c2C)cc(OC)c1OC [Compound I, 2-(3,4,5-trimethoxybenzyl)-3,4-dimethylpyridine]",250,less toxic,77 ± 8.203,N.S.,133.5 ± 12.581,more analgesic than d-propoxyphene,greater than that of dextropropoxyphene
"CCC(=O)O[C@](Cc1ccccc1)(c1ccccc1)[C@H](C)CN(C)C [Dextropropoxyphene, reference compound]",–,–,–,–,102.4 ± 10.302,–,–
